Values of other authors as cited in patent US20110052683A1, “PHARMACEUTICAL PREPARATION FOR TREATING CARDIOVASCULAR DISEASE” (priority 2008, published 2011).
Blank lines part the entries; values can stand above or below the compound they belong to.

Columns and labels:
[1] = combined administration of atorvastatin with diltiazem
[2] = combined administration of lovastatin with diltiazem
[3] = combined administration of pravastatin with verapamil

SMILES: CC(C)c1c(C(=O)Nc2ccccc2)c(-c2ccccc2)c(-c2ccc(F)cc2)n1CC[C@@H](O)C[C@@H](O)CC(=O)O [atorvastatin]
- side effects of combined administration [1]: occurrence of rhabdomyolysis and acute hepatitis

- change in Cmax and AUC [2]: sudden increase in Cmax and AUC
SMILES: CC[C@H](C)C(=O)O[C@H]1C[C@@H](C)C=C2C=C[C@H](C)[C@H](CC[C@@H]3C[C@@H](O)CC(=O)O3)[C@H]21 [lovastatin]

- increase in AUC [3]: 31%
- increase in Cmax [3]: 42%
SMILES: CC[C@H](C)C(=O)O[C@H]1C[C@H](O)C=C2C=C[C@H](C)[C@H](CC[C@@H](O)C[C@@H](O)CC(=O)O)[C@H]21 [pravastatin]
